These are literature values, as cited in patent US20080253966A1, “Diagnostic, Prognostic, and Therapeutic Factor Smac/Diablo in Human Cancer” (The Regents of The University of California, priority 2004, published 2008).

The test system of the data set is cell lines treated with paclitaxel, etoposide, camptothecin, and doxorubicine.

Regarding “first four amino acids of Smac/DIABLO: the first four amino acids of Smac/DIABLO (Arnt et al., J. Biol. Chem. 2002) (AVPI; UniProt Q9NR28 56-59, looked up, fragment)”, the effect on apoptosis result was “increased apoptosis”.
